According to ChEMBL document CHEMBL4270582, “Diterpenoid lead stevioside and its hydrolysis products steviol and isosteviol: Biological activity and structural modification” (Eur J Med Chem, 2018):
≈ marks a conversion by molar mass, not a printed value.

How the values were obtained:
[1] = tested on: Staphylococcus aureus; test: Antibacterial activity against Staphylococcus aureus 209p by serial dilution method; assay type: functional
[2] = tested on: Candida albicans; test: Antifungal activity against Candida albicans 855-653 by serial dilution method; assay type: functional
[3] = tested on: B16-F10; test: Antiproliferative activity against mouse B16F10 cells; assay type: functional, cell-based
[4] = tested on: HCT-116; test: Antiproliferative activity against human HCT116 cells after 72 hrs by MTT assay; assay type: functional, cell-based; conditions: HCT-116, 72 h
[5] = tested on: Mycobacterium tuberculosis; test: Antimycobacterial activity against Mycobacterium tuberculosis H37Rv after 11 days by serial dilution method; assay type: functional; conditions: 264 h
[6] = tested on: Mycobacterium tuberculosis; test: Antimycobacterial activity against Mycobacterium tuberculosis H37Rv after 10 to 12 days by vertical diffusion method; assay type: functional
[7] = tested on: Mycobacterium avium; test: Antimycobacterial activity against Mycobacterium avium after 10 to 12 days by vertical diffusion method; assay type: functional
[8] = tested on: Mycolicibacter terrae; test: Antimycobacterial activity against Mycobacterium terrae after 10 to 12 days by vertical diffusion method; assay type: functional
[9] = tested on: A549; test: Antiproliferative activity against human A549 cells after 48 hrs by MTT assay; assay type: functional, cell-based; conditions: A549, 48 h
[10] = tested on: ASPC1; test: Antiproliferative activity against human AsPC1 cells after 48 hrs by MTT assay; assay type: functional, cell-based; conditions: ASPC1, 48 h
[11] = tested on: HCT-116; test: Antiproliferative activity against human HCT116 cells after 48 hrs by MTT assay; assay type: functional, cell-based; conditions: HCT-116, 48 h
[12] = tested on: HCT-116; test: Antiproliferative activity against human HCT116 cells by MTT assay; assay type: functional, cell-based
[13] = tested on: Huh-7; test: Antiproliferative activity against human HuH7 cells by MTT assay; assay type: functional, cell-based
[14] = tested on: HepG2; test: Antiproliferative activity against human HepG2 cells by MTT assay; assay type: functional, cell-based
[15] = tested on: SW-620; test: Antiproliferative activity against human SW620 cells by MTT assay; assay type: functional, cell-based
[16] = tested on: Bacillus subtilis; test: Antibacterial activity against Bacillus subtilis CMCC (B) 63501 after 6 hrs by two fold serial dilution method; assay type: functional; conditions: CMCC (B) 63501, 6 h
[17] = tested on: HL-60; test: Antiproliferative activity against human HL60 cells after 24 hrs by MTT assay; assay type: functional, cell-based; conditions: HL-60, 24 h
[18] = tested on: HepG2; test: Antiproliferative activity against human HepG2 cells after 24 hrs by MTT assay; assay type: functional, cell-based; conditions: HepG2, 24 h
[19] = tested on: NCI-H460; test: Antiproliferative activity against human H460 cells after 24 hrs by MTT assay; assay type: functional, cell-based; conditions: NCI-H460, 24 h
[20] = tested on: MRC5; test: Antiproliferative activity against human MRC5 cells after 24 hrs by MTT assay; assay type: cell-based; conditions: MRC5, 24 h
[21] = tested on: Mycobacterium tuberculosis; test: Antimycobacterial activity against Mycobacterium tuberculosis H37Rv after 10 to 12 days by double serial dilution method; assay type: functional
[22] = tested on: HL-60; test: Antiproliferative activity against human HL60 cells after 48 hrs by MTT assay; assay type: functional, cell-based; conditions: HL-60, 48 h
[23] = tested on: AZ-521 cell line; test: Antiproliferative activity against human AZ-521 cells after 48 hrs by MTT assay; assay type: functional, cell-based; conditions: AZ-521, 48 h
[24] = tested on: SK-BR-3; test: Antiproliferative activity against human SKBR3 cells after 48 hrs by MTT assay; assay type: functional, cell-based; conditions: SK-BR-3, 48 h
[25] = tested on: HepG2; test: Antiproliferative activity against human HepG2 cells; assay type: functional, cell-based
[26] = tested on: HeLa; test: Antiproliferative activity against human HeLa cells after 48 hrs by MTT assay; assay type: functional, cell-based
[27] = Inhibition of calf thymus DNA polymerase alpha using poly(dA)template/oligo(dT) (12 to 18 residues) primer and dTTP as substrate after 10 mins; parameters: species or system Bos taurus
[28] = tested on: MCF7; test: Antiproliferative activity against human MCF7 cells; assay type: functional, cell-based
[29] = tested on: MCF7; test: Antiproliferative activity against human MCF7 cells after 48 hrs by SRB assay; assay type: functional, cell-based; conditions: MCF7, 48 h
[30] = tested on: Syrian golden hamster; test: Induction of insulin sensitivity in Syrian golden hamster assessed as uplift of glucose uptake in normal condition relative to control; assay type: functional, Mesocricetus auratus
[31] = tested on: Syrian golden hamster; test: Induction of insulin sensitivity in Syrian golden hamster assessed as uplift of glucose uptake in insulin-resistance condition relative to control; assay type: functional, Mesocricetus auratus
[32] = tested on: Jejunum; test: Downregulation of glucose uptake in Syrian golden hamster jejunum at 1 mM after 60 mins relative to control; assay type: functional, Mesocricetus auratus

## C[C@@]12CC[C@@H]3[C@@](CC[C@H]4[C@@]3(C)CCC[C@@]4(C)C(=O)OCC[N+](C)(C)Cc3ccccc3)(CC1=O)C2.[Br-]
[1]
  MIC: 31.2 µg/mL
[2]
  MIC: 31.2 µg/mL

## C=C1C(=O)[C@@]2(C)CC[C@@H]3[C@]1(CC[C@H]1[C@@]3(C)CCC[C@@]1(C)C(=O)NCC(=O)OCCCOc1no[n+]([O-])c1S(=O)(=O)c1ccccc1)C2
[3]
  IC50: 0.02 µM

## CCOC(=O)[C@]1(C)CCC[C@@]2(C)[C@@H]3CC[C@@]4(C)C[C@]3(CC[C@@H]21)[C@H](Cn1cc(COc2ccccc2C=O)nn1)[C@H]4O
[4]
  IC50: 2.98 µM

## COC(=O)[C@]1(C)CCC[C@@]2(C)[C@@H]3CC[C@@]4(C)C[C@]3(CC[C@@H]21)C/C4=N\NC(=O)c1ccccn1
[5]
  MIC: 10 µg/mL (≈ 22.1 µM)

## COC(=O)[C@]1(C)CCC[C@@]2(C)[C@@H]3CC[C@@]4(C)C[C@]3(CC[C@@H]21)C/C4=N\NC(=O)c1cccnc1
[5]
  MIC: 10 µg/mL (≈ 22.1 µM)

## C[C@@]12CC[C@@H]3[C@@](CC[C@H]4[C@@]3(C)CCC[C@@]4(C)C(=O)O[C@@H]3O[C@H](C(=O)NN)[C@@H](O)[C@H](O)[C@H]3O)(C/C1=N\N)C2
[6]
  MIC: 0.7 µg/mL (≈ 1.34 µM)
[7]
  MIC: 0.7 µg/mL (≈ 1.34 µM)
[8]
  MIC: 0.35 µg/mL (≈ 0.67 µM)

## C[C@@]12CC[C@@H]3[C@@](CC[C@H]4[C@@]3(C)CCC[C@@]4(C)C(=O)OCc3cn(CCCc4ccccc4)nn3)(CC1=O)C2
[9]
  IC50: 9.95 µM
[10]
  IC50: 4.79 µM
[11]
  IC50: 6.6 µM

## CCOC(=O)[C@]1(C)CCC[C@@]2(C)[C@@H]3CC[C@@]4(C)C[C@]3(CC[C@@H]21)C/C4=N\OC(=O)CCC(=O)OCCOc1no[n+]([O-])c1S(=O)(=O)c1ccccc1
[12]
  IC50: 0.48 µM
[13]
  IC50: 2.86 µM
[14]
  IC50: 2.95 µM
[15]
  IC50: 3.02 µM

## CCOC(=O)[C@]1(C)CCC[C@@]2(C)[C@@H]3CC[C@@]4(C)C[C@]3(CC[C@@H]21)C/C4=N\OC(=O)CCC(=O)OC(C)CCOc1no[n+]([O-])c1S(=O)(=O)c1ccccc1 (stereo partly specified)
[12]
  IC50: 0.94 µM
[13]
  IC50: 1.73 µM
[14]
  IC50: 2.42 µM
[15]
  IC50: 1.15 µM

## C=C[C@]12CC[C@H]3[C@@](C)(CCC[C@@]3(C)C(=O)OCC)[C@@H]1CC[C@](C)(/C=N/O)C2
[16]
  MIC: 1.56 µg/mL (≈ 4.15 µM)

## C=C1C[C@@]23CC[C@H]4[C@@](C)(CCC[C@@]4(C)C(=O)NCCNC(=O)[C@]4(C)CCC[C@@]5(C)[C@@H]6CC[C@]7(O)C[C@@]6(CC[C@@H]54)CC7=C)[C@@H]2CC[C@]1(O)C3
[17]
  IC50: 4.3 µM
[18]
  IC50: 17.9 µM
[19]
  IC50: 10.7 µM
[20]
  IC50: 17 µM

## C[C@@]12CC[C@@H]3[C@@](CC[C@H]4[C@@]3(C)CCC[C@@]4(C)C(=O)O)(C[C@H]1CC(=O)CCCCCCCCC(=O)C[C@@H]1C[C@]34CC[C@H]5[C@@H](CCC[C@H]5C(=O)O)[C@@H]3CC[C@@]1(C)C4)C2
[21]
  MIC: 12.5 µg/mL (≈ 16.1 µM)

## COP(=O)(OC)C(C)(C)C/C(C)=N/N=C1\C[C@]23CC[C@H]4[C@@](C)(CCC[C@@]4(C)C(=O)N/N=C(\C)CC(C)(C)P(=O)(OC)OC)[C@@H]2CC[C@@]1(C)C3
[5]
  MIC: 5 µg/mL (≈ 6.88 µM)

## C=C1C[C@@]23CC[C@H]4[C@@H](CCC[C@@]4(C)COC(=O)/C=C/C(F)(F)F)[C@@H]2CC[C@]1(O)C3
[22]
  IC50: 2.9 µM
[9]
  IC50: 4.1 µM
[23]
  IC50: 1.7 µM
[24]
  IC50: 1.2 µM

## CCCCCCCC(=O)CO[C@]1(C)CCC[C@@]2(C)[C@@H]3CC[C@@]4(C)C[C@]3(CC[C@@H]21)CC4=O
[25]
  IC50: 2 µM

## C[C@@]12CC[C@@H]3[C@@](CC[C@H]4[C@@]3(C)CCC[C@@]4(C)C(=O)NNC(=O)CCCCC(=O)NNC(=O)[C@]3(C)CCC[C@H]4[C@@H]5CC[C@@]6(C)C[C@]5(CC[C@@H]43)CC6=O)(CC1=O)C2
[5]
  MIC: 5 µg/mL (≈ 6.57 µM)

## C[C@@]12CC[C@@H]3[C@@](CC[C@H]4[C@@]3(C)CCC[C@@]4(C)C(=O)OCc3cn(-c4ccccc4)nn3)(CC1=O)C2
[26]
  IC50: 5.83 µM

## C[C@@]12CC[C@@H]3[C@@](CC[C@H]4[C@@]3(C)CCC[C@@]4(C)C(=O)NCCNC(=O)[C@]3(C)CCC[C@@]4(C)[C@@H]5CC[C@@]6(C)C[C@]5(CC[C@@H]43)CC6=O)(CC1=O)C2
[17]
  IC50: 4.8 µM
[18]
  IC50: 17.4 µM
[19]
  IC50: 14 µM
[20]
  IC50: 22.6 µM

## NNC(=O)c1ccncc1 [ISONIAZID]
[5]
  MIC: 0.5 µg/mL (≈ 3.65 µM)

## C[C@@]12CC[C@@H]3[C@@](CC[C@H]4[C@@]3(C)CCC[C@@]4(C)C(=O)O)(CC1=O)C2 [ISOSTEVIOL]
[27]
  IC50: 64 µM
[28]
  IC50: 2.18 µg/mL (≈ 6.85 µM)

## C=C1C[C@@]23CC[C@H]4[C@@](C)(CCC[C@@]4(C)C(=O)O)[C@@H]2CC[C@]1(O)C3 [STEVIOL]
[29]
  IC50: 185 µM

## C=C1C[C@@]23CC[C@H]4[C@@](C)(CCC[C@@]4(C)C(=O)O[C@@H]4O[C@H](CO)[C@@H](O)[C@H](O)[C@H]4O)[C@@H]2CC[C@]1(O[C@@H]1O[C@H](CO)[C@@H](O)[C@H](O)[C@H]1O[C@@H]1O[C@H](CO)[C@@H](O)[C@H](O)[C@H]1O)C3 [STEVIOSIDE]
[30]
  fold change (FC): 2.1
[31]
  fold change (FC): 4.4
[32]
  Activity: 43%

## CCN(CC)CCNC(=O)c1c(C)[nH]c(/C=C2\C(=O)Nc3ccc(F)cc32)c1C [SUNITINIB]
[14]
  IC50: 7.78 µM
